Values quoted from earlier work in patent US10688050B1 (Synthon B.V., priority 2018, dated 2020).
Where two headings read alike, the source gives them in different places.

Assays:
[1] = not given; remark: listed apart in the source

Row | SMILES | solubility (BCS) | solubility ([1]; pH 1.2) | solubility ([1]; pH range from 3 to 8)
1 | C=CC(=O)N1CCC[C@@H](n2nc(-c3ccc(Oc4ccccc4)cc3)c3c(N)ncnc32)C1 [Ibrutinib, 1-[(3R)-3-[4-amino-3-(4-phenoxyphenyl)-1H-pyrazolo[3,4-d]pyrimidin-1-yl]piperidin-1-yl]prop-2-en-1-one] | low | – | –
2 | C=CC(=O)N1CCC[C@@H](n2nc(-c3ccc(Oc4ccccc4)cc3)c3c(N)ncnc32)C1 [ibrutinib form A] | – | slightly soluble | practically insoluble
